Like-named read-outs stand apart in the source and are kept apart here.
Experiments:
[1] = tested on: Sm.TRPM[N1388H]PZQ; assay: FLIPR Ca2+ reporter assay, Sm.TRPM[N1388H]PZQ mutant; type: cell-based, Schistosoma mansoni
[2] = tested on: Sm.TRPM[T1518S]PZQ; assay: FLIPR Ca2+ reporter assay, Sm.TRPM[T1518S]PZQ mutant; type: cell-based, Schistosoma mansoni
[3] = tested on: larval and adult diphyllobothriids; conditions: cited from earlier work
[4] = tested on: Sm.TRPM[D1677Y]PZQ; assay: FLIPR Ca2+ reporter assay, Sm.TRPM[D1677Y]PZQ mutant; type: cell-based, Schistosoma mansoni
[5] = molecular target: Ml.TRPM[E1495D]PZQ (Macrostomum lignano, UniProt A0A267GS13); type: cell-based
[6] = tested on: D. japonica; conditions: read-out: EC50 for evoking bipolarity; cited from earlier work
[7] = tested on: Sm.TRPM[D1677E]PZQ; assay: FLIPR Ca2+ reporter assay, Sm.TRPM[D1677E]PZQ mutant; type: cell-based, Schistosoma mansoni
[8] = tested on: cyclophyllidean cestodes; conditions: cited from earlier work
[9] = tested on: Fh.TRPMPZQ; conditions: Fh.TRPMPZQ with S1 threonine residue; cited from earlier work
[10] = tested on: Sm.TRPM[W1667A]PZQ; assay: FLIPR Ca2+ reporter assay, Sm.TRPM[W1667A]PZQ mutant; type: cell-based, Schistosoma mansoni

Chain of Ml.TRPM[E1495D]PZQ (A0A267GS13 1-1954, stated change not applied): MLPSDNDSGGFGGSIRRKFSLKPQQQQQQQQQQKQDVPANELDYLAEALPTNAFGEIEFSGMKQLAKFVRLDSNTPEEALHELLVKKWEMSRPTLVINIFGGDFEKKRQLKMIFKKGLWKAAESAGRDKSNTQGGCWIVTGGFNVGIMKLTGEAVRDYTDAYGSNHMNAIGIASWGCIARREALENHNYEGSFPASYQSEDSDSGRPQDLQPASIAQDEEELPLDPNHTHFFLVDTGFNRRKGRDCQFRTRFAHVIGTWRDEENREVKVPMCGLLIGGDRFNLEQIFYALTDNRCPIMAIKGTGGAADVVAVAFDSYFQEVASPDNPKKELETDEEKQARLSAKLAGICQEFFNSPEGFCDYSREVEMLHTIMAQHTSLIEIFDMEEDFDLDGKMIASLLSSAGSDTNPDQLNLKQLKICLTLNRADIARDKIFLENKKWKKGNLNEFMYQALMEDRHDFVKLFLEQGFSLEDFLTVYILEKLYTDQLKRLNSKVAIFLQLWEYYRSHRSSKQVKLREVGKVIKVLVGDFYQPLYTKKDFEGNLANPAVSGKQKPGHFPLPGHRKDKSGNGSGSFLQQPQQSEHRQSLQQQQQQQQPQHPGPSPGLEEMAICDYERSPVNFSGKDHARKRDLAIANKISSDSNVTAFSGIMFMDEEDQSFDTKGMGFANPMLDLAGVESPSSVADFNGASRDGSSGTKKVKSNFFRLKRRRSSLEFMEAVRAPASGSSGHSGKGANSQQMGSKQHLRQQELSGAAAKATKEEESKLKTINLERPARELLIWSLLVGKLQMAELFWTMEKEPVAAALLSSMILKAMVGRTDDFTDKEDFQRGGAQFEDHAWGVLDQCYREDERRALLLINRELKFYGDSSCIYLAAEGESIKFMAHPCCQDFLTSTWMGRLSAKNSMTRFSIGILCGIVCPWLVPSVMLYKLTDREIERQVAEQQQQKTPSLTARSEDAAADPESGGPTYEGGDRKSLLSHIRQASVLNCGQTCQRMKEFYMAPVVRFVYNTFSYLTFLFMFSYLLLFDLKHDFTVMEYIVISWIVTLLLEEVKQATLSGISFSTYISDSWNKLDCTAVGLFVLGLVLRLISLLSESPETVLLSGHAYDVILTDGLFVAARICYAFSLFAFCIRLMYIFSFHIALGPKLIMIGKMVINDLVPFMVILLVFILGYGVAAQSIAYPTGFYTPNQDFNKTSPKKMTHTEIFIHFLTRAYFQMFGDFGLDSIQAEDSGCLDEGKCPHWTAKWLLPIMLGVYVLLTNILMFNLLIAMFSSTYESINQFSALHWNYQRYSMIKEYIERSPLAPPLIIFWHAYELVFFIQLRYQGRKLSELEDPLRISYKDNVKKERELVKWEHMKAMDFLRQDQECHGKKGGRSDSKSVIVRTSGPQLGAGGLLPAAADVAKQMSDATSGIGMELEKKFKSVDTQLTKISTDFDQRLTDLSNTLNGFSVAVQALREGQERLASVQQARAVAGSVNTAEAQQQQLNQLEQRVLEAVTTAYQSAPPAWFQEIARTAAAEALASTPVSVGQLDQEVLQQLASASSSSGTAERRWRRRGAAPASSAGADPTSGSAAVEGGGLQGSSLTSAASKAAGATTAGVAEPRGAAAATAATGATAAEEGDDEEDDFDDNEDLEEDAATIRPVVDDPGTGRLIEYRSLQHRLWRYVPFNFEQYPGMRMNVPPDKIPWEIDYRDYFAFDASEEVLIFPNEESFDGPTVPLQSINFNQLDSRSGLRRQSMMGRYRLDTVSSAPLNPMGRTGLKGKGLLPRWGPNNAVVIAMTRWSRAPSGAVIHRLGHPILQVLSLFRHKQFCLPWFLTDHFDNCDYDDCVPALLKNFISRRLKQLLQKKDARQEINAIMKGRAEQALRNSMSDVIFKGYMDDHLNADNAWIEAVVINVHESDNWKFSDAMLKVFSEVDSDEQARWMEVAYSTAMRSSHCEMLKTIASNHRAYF

O=C(C1CCCCC1)N1CC(=O)N2CCc3ccccc3C2C1 (racemic) [(±)-PZQ, praziquantel]
sensitivity compared with the wild-type channel [1]: equivalent sensitivity
sensitivity compared with the wild-type channel [2]: equivalent sensitivity
concentration required to show lethality [3]: > 320 µM
sensitivity of mutant channel compared with wild type [4]: enhanced
increase of sensitivity versus wild-type Ml.TRPMPZQ [5]: ~ 2.5 fold
EC50 ([5]; Ml.TRPM[E1495D]PZQ, Ca2+): 21.1 ± 3.1 µM
EC50 [6]: 35 ± 7 µM
responsiveness of mutant channel [7]: no responsiveness
responsiveness of mutant channel ([7]; listed as PZQ): ablated sensitivity
lowest concentration with deleterious effects in vitro [8]: 320 pM
sensitivity of channel [9]: insensitive
sensitivity of mutant channel compared with wild type [10]: increased sensitivity

From paper PMC9910428 (Proceedings of the National Academy of Sciences of the …, 2022)
